Drawing on patent publication US20070037752A1, “Novel alanyl-amino peptidase inhibitors for functionally influencing different cells and treating immunological, inflammatory, neuronal, and other diseases” (priority 2003, published 2007), this text covers IC50 for 79 compounds.

Residues, ends and D or L forms follow the SMILES beside them. *: point of attachment. OBn = c1ccc(CO*)cc1

Chain of alanyl aminopeptidases (APN) (P15144 whole entry, species assumed): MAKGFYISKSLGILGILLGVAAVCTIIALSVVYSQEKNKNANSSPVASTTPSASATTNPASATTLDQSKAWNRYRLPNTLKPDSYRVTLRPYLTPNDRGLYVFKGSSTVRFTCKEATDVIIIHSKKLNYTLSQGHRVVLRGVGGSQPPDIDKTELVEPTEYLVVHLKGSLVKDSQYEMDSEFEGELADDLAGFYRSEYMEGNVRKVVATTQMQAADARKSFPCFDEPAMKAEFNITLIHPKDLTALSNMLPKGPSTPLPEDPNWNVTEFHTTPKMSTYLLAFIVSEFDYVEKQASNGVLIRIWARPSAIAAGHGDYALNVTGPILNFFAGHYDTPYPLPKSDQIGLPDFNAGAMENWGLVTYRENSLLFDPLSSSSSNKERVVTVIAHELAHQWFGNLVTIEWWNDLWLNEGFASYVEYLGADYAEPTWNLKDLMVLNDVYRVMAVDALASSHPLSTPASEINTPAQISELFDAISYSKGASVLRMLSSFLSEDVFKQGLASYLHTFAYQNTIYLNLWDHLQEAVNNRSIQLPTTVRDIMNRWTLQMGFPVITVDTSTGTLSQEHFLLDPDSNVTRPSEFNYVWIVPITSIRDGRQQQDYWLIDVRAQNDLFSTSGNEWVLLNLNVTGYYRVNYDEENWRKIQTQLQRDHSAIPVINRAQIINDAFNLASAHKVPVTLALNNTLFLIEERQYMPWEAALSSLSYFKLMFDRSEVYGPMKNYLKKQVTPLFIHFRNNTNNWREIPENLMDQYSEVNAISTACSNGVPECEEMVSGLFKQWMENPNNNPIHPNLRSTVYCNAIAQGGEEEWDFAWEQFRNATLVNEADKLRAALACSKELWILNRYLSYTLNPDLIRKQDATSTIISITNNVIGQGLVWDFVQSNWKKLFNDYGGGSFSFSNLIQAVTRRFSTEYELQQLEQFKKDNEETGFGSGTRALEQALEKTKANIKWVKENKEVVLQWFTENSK

One assay has as its target alanyl aminopeptidases (APN) (Homo sapiens, UniProt P15144). Kind of assay: Inhibition of alanyl aminopeptidase enzymatic activity, fluorogenic substrate (Ala)2-rhodamine 110. The assay is classed as biochemical. Conditions: Table 1, unstarred values; read-out: IC50APN. The method, then: The inhibition characteristics measured are referred to as IC-50 values or ID50 values (the latter marked with “*”) for said enzyme. The enzymatic activity was determined by means of the fluorogenic substrate/product (Ala)2-rhodamine 110.
In the case of `Cc1cc(Cl)ccc1OCCC(=O)NO` [A1.002], the IC50 is 5.6 µM.

The same assay, now with this note: Table 2; read-out: IC50APN.
Regarding `C/C(=N/O)c1ccc2c(c1)OCCOCCOc1cc(/C(C)=N\O)ccc1OCCOCCO2` [A2.002], the IC50 was determined as 8.6 µM.

Still in this assay, the particulars now being: Table 3, starred values = ID50; read-out: ID50 APN (values marked with *).
With `O=c1cc(CSc2nnc(-c3ccco3)c(-c3ccco3)n2)c2ccccc2[nH]1` [A3.289], the IC50 came to 65.1 µM.

For the compound `COc1ccc(CSCC(=O)N/N=C/c2ccco2)cc1` [A3.291], the IC50 came to 66 µM.

Take `O=C(/C=C/c1ccco1)NCCCN1CCOCC1` [A3.339]: the IC50 turned out to be 208 µM.

On to `CCOC(=O)c1nc[nH]c1N` [A3.007], for which the IC50 was 2.6 µM.

Still in this assay, the particulars now being: Table 3, unstarred values; read-out: IC50APN.
Regarding `COC(=O)N/N=C(C)\C=C\c1ccco1` [A3.059], the IC50 is 13.5 µM.

On to `Cc1nc(NC(C)C(=O)O)c2nc(C)oc2n1` (stereo not shown) [A3.290], for which the IC50 is 65.8 µM.

`CCN(CC)C(=O)/C(=C/c1ccco1)NC(=O)c1ccccc1` [A3.054]: the IC50 is 12.8 µM.

Turning to `CC(/C=C/c1ccco1)=N\NC(=O)CNc1ccc2ccccc2c1` [A3.173], the IC50 came out at 28.5 µM.

On to `CCCCOC(=O)c1ccc(NC(=O)/C=C\c2ccco2)cc1` [A3.032], for which the IC50 came to 8.3 µM.

Take `COc1cc(-c2cc(C(=O)N/N=C/c3ccco3)[nH]n2)ccc1OC(C)C` [A3.216a]: the IC50 stood at 36.1 µM.

As to `CC1CCc2c(sc(NC(=O)C(C(F)(F)F)C(F)(F)F)c2C#N)C1` (stereo not shown) [A3.266], the IC50 came out at 51.3 µM.

Take `COc1cccc(/C=N/NC(=O)c2ccn(C)n2)c1O` [A3.328]: the IC50 stood at 142 µM.

As for `Cc1cc(C)cc(OCC(=O)N/N=C/c2ccco2)c1` [A3.140], the IC50 was 23.4 µM.

For the compound `O=C(N/N=C/c1ccco1)c1ccc(NC(=O)c2ccccc2Cl)cc1` [A3.199], the IC50 worked out at 32.5 µM.

Take `CCN(CC)c1ccc(/C=N/NC(=O)CNC(=O)/C=C/c2ccco2)cc1` [A3.135]: the IC50 worked out at 22.8 µM.

With `O=C1CNC(c2cccc([N+](=O)[O-])c2)N1O` (stereo not shown) [A3.161], the IC50 came to 26.4 µM.

On to `Cc1ccc(/C=N/NC(=O)c2cccc(NC(=O)c3ccc(F)cc3)c2)o1` [A3.038], for which the IC50 was found to be 9.8 µM.

As for `Cc1ccc(/C=N/NC(=O)c2ccc(F)cc2)o1` [A3.207], the IC50 amounted to 34.4 µM.

On to `CCc1cccc(CC)c1NC(=S)N/N=C1\C(=O)N(CN2CC(C)CC(C)C2)c2ccccc21` (stereo not shown) [A3.024], for which the IC50 worked out at 6.6 µM.

With `O=C(NCCc1ccccc1)/C(=C\c1ccco1)NC(=O)c1ccccc1` [A3.275], the IC50 came to 55.8 µM.

As for `COc1ccc(C[C@@H](N)C(=O)N[C@@H]2[C@H](O)[C@H](n3cnc4c(N(C)C)ncnc43)O[C@@H]2CO)cc1` [A3.114], the IC50 was determined as 20.9 µM.

Take `Cc1ccccc1NC(=O)C1C(c2cccs2)C(C#N)=C(SCC(=O)Nc2ccc(Br)cc2)NC1(C)O` (stereo not shown) [A3.204]: the IC50 worked out at 33.9 µM.

As for `O=C(N/C(=C\c1ccco1)C(=O)N1CCOCC1)c1ccco1` [A3.058], the IC50 was 13.5 µM.

On to `Cc1ccc(C(=O)N/C(=C\c2ccco2)C(=O)N2CCOCC2)cc1C` [A3.178], for which the IC50 was 28.8 µM.

For the compound `C=CCOC(=O)c1cc(-c2ccc(/C=C3/C(=O)N(CCCO)C(=O)C(C#N)=C3C)o2)ccc1Cl` [A3.087], the IC50 came to 18.1 µM.

On to `NNC(=O)Cn1c2ccccc2n2cc(-c3ccccc3)cc12` [A3.091], for which the IC50 turned out to be 18.7 µM.

With `CCOC(=O)c1cc(-c2ccc(/C=C3\C(=O)N(CCCO)C(=O)C(C#N)=C3C)o2)ccc1Cl` [A3.233], the IC50 came out at 41 µM.

Still in this assay, the particulars now being: Table 4, starred values = ID50; read-out: ID50 APN (values marked with *).
Turning to `Cc1ccc(OCC(=O)N/N=C\c2ccco2)c(C)c1` [A4.168], the IC50 worked out at 81.8 µM.

Regarding `O=C(N/N=C/c1ccco1)c1cc(-c2ccccc2Cl)n[nH]1` [A4.163], the IC50 came out at 75.8 µM.

Regarding `O=C(CNC(=O)c1ccccc1Br)N/N=C/c1ccco1` [A4.171], the IC50 stood at 91.2 µM.

Still in this assay, the particulars now being: Table 4, unstarred values; read-out: IC50APN.
On to `O=C(N/N=C/c1ccco1)c1ccc(=O)[nH]n1` [A4.063], for which the IC50 stood at 22.4 µM.

On to `Cc1cc(C(=O)N/N=C/c2ccco2)[nH]n1` [A4.139], for which the IC50 is 48.2 µM.

In the case of `O=C(N/N=C/c1cc(Cl)cc([N+](=O)[O-])c1O)c1ccccc1O` [A4.005], the IC50 amounted to 5.8 µM.

In the case of `CCOc1ccc(-c2cc(C(=O)N/N=C/c3ccco3)[nH]n2)cc1OC` [A4.104], the IC50 came out at 33.4 µM.

On to `N/C(=N\N=C\c1ccco1)c1nonc1N` [A4.032], for which the IC50 was 14.6 µM.

In the case of `Cc1ccc(/C=N/NC(=O)c2cccc(NC(=O)c3ccc(F)cc3)c2)o1` [A4.014], the IC50 is 9.8 µM.

For the compound `COc1ccc2ccccc2c1-c1cc(C(=O)N/N=C(\C)c2ccco2)[nH]n1` [A4.121], the IC50 came out at 38.2 µM.

Regarding `O=C(CCCOc1ccc(Cl)cc1Cl)N/N=C/c1ccco1` [A4.081], the IC50 was determined as 26.3 µM.

`COc1cc(/C=N/NC(=O)/C(=C/c2cccs2)NC(=O)c2ccccc2)cc([N+](=O)[O-])c1O` [A4.076]: the IC50 came to 25.1 µM.

`O=C(NN=C(/C=C/c1ccccc1)c1ccccc1)c1cc2ccccc2cc1O` [A4.028]: the IC50 is 13.7 µM.

With `COc1ccccc1C(=O)N/N=C/c1ccco1` [A4.131], the IC50 was 44.7 µM.

Turning to `Cc1ccc(/C=N/NC(=O)c2cccc(I)c2)o1` [A4.096], the IC50 was determined as 30 µM.

The assay is the same for the next values; noted with them: Table 6; read-out: IC50APN.
As to `CC1CCN(S(=O)(=O)c2ccc3c(c2)C(Cl)(Cl)C(=O)N3)CC1` [A6.015], the IC50 stood at 37.2 µM.

With `O=[N+](O)CC(c1ccccc1)P(=O)(c1ccccc1)c1ccccc1` (stereo not shown) [A6.007], the IC50 amounted to 16.3 µM.

Take `Cc1ccc(/C=C/C(=O)Nc2ccc(S(=O)(=O)N3CCCC3)cc2)o1` [A6.013]: the IC50 came out at 24.8 µM.

Still in this assay, the particulars now being: Table 7; read-out: IC50APN.
As for `O=C1C(Cc2ccc3[nH]ccc3c2)NC(=S)N1c1ccccc1` (stereo not shown) [A7.012], the IC50 was 36.9 µM.

Staying with this assay, now noted: Table 8, starred values = ID50; read-out: ID50 APN (values marked with *).
For the compound `Cc1ccc(Cn2c(SCCC(=O)O)nc3c2c(=O)[nH]c(=O)n3C)cc1` [A8.033], the IC50 is 53.2 µM.

As for `CCCC1NC(=S)N(c2ccccc2)C1=O` (stereo not shown) [A8.040], the IC50 came to 154 µM.

Still in this assay, the particulars now being: Table 8, unstarred values; read-out: IC50APN.
Consider `NC(=S)N/N=C/c1ccco1` [A8.032], for which the IC50 was 50 µM.

In the case of `CN(/N=C/c1sc(=O)[nH]c1Cl)c1ccccc1` [A8.014], the IC50 was determined as 14.4 µM.

The same assay, now with this note: Table 9, starred values = ID50; read-out: ID50 APN (values marked with *).
In the case of `CCCOC(=O)C(NC(=O)c1ccccc1)(N1CCOCC1)C(F)(F)F` (stereo not shown) [A9.125], the IC50 was found to be 186 µM.

Consider `CC1=C(C#N)C(=O)N(CCO)C(=O)/C1=C\c1ccc(-c2cc(Cl)ccc2Cl)o1` [A9.002], for which the IC50 was 1.2 µM.

The assay is the same for the next values; noted with them: Table 9, unstarred values; read-out: IC50APN.
Consider `O=c1[nH]c(/C=C/c2ccco2)nc2ccccc12` [A9.035], for which the IC50 came to 14.6 µM.

`CCOC(=O)c1cc(-c2ccc(/C=C3\C(=O)N(CCCO)C(=O)C(C#N)=C3C)o2)ccc1Cl` [A9.094]: the IC50 turned out to be 41 µM.

As to `CC1CCN(C(=O)/C(=C\c2ccco2)NC(=O)c2ccc(Cl)cc2)CC1` [A9.009], the IC50 stood at 6.2 µM.

Regarding `CC1(C)CC(CC/N=C/c2ccccc2)(Cc2ccccc2)CCO1` (stereo not shown) [A9.116], the IC50 was 93.6 µM.

As for `CC1CCCCN1S(=O)(=O)c1ccc(NC(=O)/C=C/c2ccco2)cc1` (stereo not shown) [A9.047], the IC50 amounted to 19.9 µM.

In the case of `NCCCNC(=O)C1Cc2ncn(Cc3ccccc3[N+](=O)[O-])c2CN1Cc1ccccn1` (stereo not shown) [A9.123], the IC50 is 138 µM.

For `CC1=C(C#N)C(=O)N(CCO)C(=O)/C1=C\c1ccc(-c2ccc(C)c(Cl)c2)o1` [A9.121], the IC50 is 125 µM.

The assay is the same for the next values; noted with them: Table 10; read-out: IC50APN.
Regarding `Cc1ccc(C(=O)N/C(=C\c2ccco2)C(=O)N2CC3CC(C2)c2cccc(=O)n2C3)cc1` (stereo not shown) [A10.005], the IC50 turned out to be 11 µM.

`COc1ccc(Cl)cc1C(=O)N/C(=C/c1ccco1)C(=O)N1CC2CC(C1)c1cccc(=O)n1C2` (stereo not shown) [A10.003]: the IC50 worked out at 8.1 µM.

Still in this assay, the particulars now being: Table 11; read-out: IC50APN.
Take `O=c1[nH]cc([N+](=O)[O-])cc1C(F)(F)F` [A11.021]: the IC50 was 29.9 µM.

Regarding `O=C1C=CC(=O)N1c1cc([N+](=O)[O-])ccc1F` [A11.015], the IC50 was 20.8 µM.

For the compound `N/C(=N\[N+](=O)[O-])N/N=C/c1ccco1` [A11.001], the IC50 came out at 7.6 µM.

On to `CC(=O)N1CCOC1(C)c1ccc([N+](=O)[O-])cc1` (stereo not shown) [A11.024], for which the IC50 is 32.8 µM.

With `O=C(CC1(O)CCCCC1)N/N=C/c1ccccc1[N+](=O)[O-]` [A11.023], the IC50 worked out at 31.1 µM.

The same assay, now with this note: Table 12; read-out: IC50APN.
With `CC(C)COc1ccc(C(=O)N/C(=C\c2ccco2)C(=O)N2CCOCC2)cc1` [A12.025], the IC50 turned out to be 13.1 µM.

As for `CCC(C)C(NC(=O)C(N)CC(=O)OCc1ccccc1)C(=O)NC(Cc1ccccc1)C(=O)OC` (stereo not drawn) [A12.016] (H-Asp(OBn)-Ile-Phe-OMe; configuration not given here), the IC50 was found to be 8.6 µM.

Consider `COC(=O)c1ccc(-c2ccc(/C=C3\C(=O)N(CCCO)C(=O)C(C#N)=C3C)o2)cc1` [A12.005], for which the IC50 was determined as 5 µM.

`O=C(CS(=O)(=O)c1ccc(Cl)cc1)NO` [A12.021]: the IC50 was 11.5 µM.

Consider `O=C(N/C(=C\c1ccco1)C(=O)N1CCCC(CO)C1)c1ccccc1` (stereo not shown) [A12.035], for which the IC50 was 19 µM.

Turning to `COc1ccc(C[C@@H](N)C(=O)N[C@H]2[C@H](O)[C@H](n3cnc4c(N(C)C)ncnc43)O[C@@H]2CO)cc1` [A12.037], the IC50 was determined as 20.9 µM.

For `Cc1ccc(/C=C(\NC(=O)c2ccccc2)C(=O)NCCN2CCOCC2)o1` [A12.063], the IC50 is 55 µM.

Consider `O=C(O)C1N=NC(c2ccc(F)cc2)=CN1O` (stereo not shown) [A12.031], for which the IC50 amounted to 17.1 µM.

As to `Cc1ccccc1NC(=O)C1C(c2cccs2)C(C#N)=C(SCC(=O)Nc2ccc(Br)cc2)NC1(C)O` (stereo not shown) [A12.054], the IC50 amounted to 33.9 µM.

Still in this assay, the particulars now being: Table 13; read-out: IC50APN.
Take `COC(=O)c1cc(-c2ccc(/C=C3\C(=O)N(CCCO)C(=O)C(C#N)=C3C)o2)ccc1Cl` [A13.006]: the IC50 was found to be 15.2 µM.

Take `Cc1ccccc1NC(=O)C1C(c2cccs2)C(C#N)=C(SCC(=O)Nc2ccc(Br)cc2)NC1(C)O` (stereo not shown) [A13.019]: the IC50 was 33.9 µM.
